# Target: T1, human capsaicin receptor (VR1) (Homo sapiens, UniProt Q8NER1)
# T1 construct: transfected with the pBK-CMV expression construct encoding the full length human capsaicin receptor; expressed in transfected cells
# Test: Capsaicin receptor binding assay ([3H]RTX competition)
# Settings: read-out: Ki
# Description: This Example illustrates the preparation of VR1-transfected cells and membrane preparations for use in binding assays (Example 5) and functional assays (Example 6).
# A cDNA encoding full length human capsaicin receptor (SEQ ID NO: 1, 2 or 3 of U.S. Pat. No. 6,482,611) was subcloned in the plasmid pBK-CMV (Stratagene, La Jolla, Calif.) for recombinant expression in mammalian cells.
# Human embryonic kidney (HEK293) cells were transfected with the pBK-CMV expression construct encoding the full length human capsaicin receptor using standard methods. The transfected cells were selected for two weeks in media containing G418 ([…]) to obtain a pool of stably transfected cells. Independent clones were isolated from this pool by limiting dilution to obtain clonal stable cell lines for use in subsequent experiments.
# For radioligand binding experiments, cells were seeded in T175 cell culture flasks in media without antibiotics and grown to approximately 90% confluency. The flasks were then washed with PBS and harvested in PBS containing 5 mM EDTA. The cells were pelleted by gentle centrifugation and stored at −80° C. until assayed.
# Previously frozen cells were disrupted with the aid of a tissue homogenizer in ice-cold HEPES homogenization buffer (5mM KCl 5, 5.8 mM NaCl, 0.75 mM CaCl2, 2 mM MgCl2, 320 mM sucrose, and 10 mM HEPES pH 7.4). Tissue homogenates were first centrifuged for 10 minutes at 1000×g (4° C.) to remove the nuclear fraction and debris, and then the supernatant from the first centrifugation is further centrifuged for 30 minutes at 35,000×g (4° C.) to obtain a partially purified membrane fraction. Membranes were resuspended in the HEPES homogenization buffer prior to the assay. An aliquot of this membrane homogenate is used to determine protein concentration via the Bradford method (BIO-RAD Protein Assay Kit, #500-0001, BIO-RAD, Hercules, Calif.).
# This Example illustrates a representative assay of capsaicin receptor binding that may be used to determine the binding affinity of compounds for the capsaicin (VR1) receptor.
# Binding studies with [^3H] Resiniferatoxin (RTX) are carried out essentially as described by Szallasi and Blumberg (1992) J. Pharmacol. Exp. Ter. 262: 883-888. In this protocol, non-specific RTX binding is reduced by adding bovine alpha, acid glycoprotein (100 μg per tube) after the binding reaction has been terminated.
# [^3H] RTX (37 Ci/mmol) is synthesized by and obtained from the Chemical Synthesis and Analysis Laboratory, National Cancer Institute-Frederick Cancer Research and Development Center, Frederick, Md. [^3H] RTX may also be obtained from commercial vendors (e.g., Amersham Pharmacia Biotech, Inc.; Piscataway, N.J.).
# The membrane homogenate of Example 4 is centrifuged as before and resuspended to a protein concentration of 333 μg/ml in homogenization buffer. Binding assay mixtures are set up on ice and contain [^3H]JRTX (specific activity 2200 mCi/ml), 2 μl non-radioactive test compound, 0.25 mg/ml bovine serum albumin (Cohn fraction V), and 5×10^4−1×10^5 VR1-transfected cells. The final volume is adjusted to 500 μl (for competition binding assays) or 1,000 μl (for saturation binding assays) with the ice-cold HEPES homogenization buffer solution (pH 7.4) described above. Non-specific binding is defined as that occurring in the presence of 1 μM non-radioactive RTX (Alexis Corp.; San Diego, Calif.). For saturation binding, [^3H]RTX is added in the concentration range of […], using 1 to 2 dilutions. Typically 11 concentration points are collected per saturation binding curve.
# Competition binding assays are performed in the presence of 60 pM [^3H]RTX and various concentrations of test compound. The binding reactions are initiated by transferring the assay mixtures into a 37° C. water bath and are terminated following a 60 minute incubation period by cooling the tubes on ice.
# T1 sequence (Q8NER1 whole entry): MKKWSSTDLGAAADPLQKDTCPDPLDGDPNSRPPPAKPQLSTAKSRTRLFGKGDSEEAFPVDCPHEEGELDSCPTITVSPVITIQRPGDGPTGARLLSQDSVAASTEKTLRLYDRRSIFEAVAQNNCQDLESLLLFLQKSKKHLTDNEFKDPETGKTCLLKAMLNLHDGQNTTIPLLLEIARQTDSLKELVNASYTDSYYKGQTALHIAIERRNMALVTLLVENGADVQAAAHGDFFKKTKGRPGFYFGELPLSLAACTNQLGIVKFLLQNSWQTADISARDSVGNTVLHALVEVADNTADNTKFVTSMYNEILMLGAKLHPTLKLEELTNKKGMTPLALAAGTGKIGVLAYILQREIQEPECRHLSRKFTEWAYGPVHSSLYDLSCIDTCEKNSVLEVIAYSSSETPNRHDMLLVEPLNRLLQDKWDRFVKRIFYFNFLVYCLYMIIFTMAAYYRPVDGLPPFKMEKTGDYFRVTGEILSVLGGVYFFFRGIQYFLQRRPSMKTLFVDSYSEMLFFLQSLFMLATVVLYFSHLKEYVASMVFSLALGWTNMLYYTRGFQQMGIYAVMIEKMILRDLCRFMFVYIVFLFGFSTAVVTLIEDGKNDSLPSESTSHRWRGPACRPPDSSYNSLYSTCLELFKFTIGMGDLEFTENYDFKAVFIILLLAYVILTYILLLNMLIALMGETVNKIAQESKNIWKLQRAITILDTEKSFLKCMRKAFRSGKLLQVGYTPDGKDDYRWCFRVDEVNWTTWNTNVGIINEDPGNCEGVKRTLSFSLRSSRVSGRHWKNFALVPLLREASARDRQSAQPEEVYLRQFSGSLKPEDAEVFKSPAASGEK
row,Compound,Ki [nM]
1,"CC(C)(C)c1ccc(NC(=O)c2ccc(-c3ccccc3N)nc2)cc1 [Compound 61, 6-(2-Amino-phenyl)-N-(4-tert-butyl-phenyl)-nicotinamide]",< 1000
2,"O=C(Nc1ccccc1C(F)(F)F)c1ccc(-c2ccccc2Cl)nc1 [Compound 64, 6-(2-Chloro-phenyl)-N-(2-trifluoromethyl-phenyl)-nicotinamide]",< 1000
3,"CCCc1ccc(NC(=O)c2ccc(-c3ccccc3Cl)nc2)cc1 [Compound 77, 6-(2-Chloro-phenyl)-N-(4-propyl-phenyl)-nicotinamide]",< 1000
4,"O=C(Nc1ccc(C(F)(F)F)cc1)c1ccc(-c2ccccc2Cl)nc1 [Compound 78, 6-(2-Chloro-phenyl)-N-(4-trifluoromethyl-phenyl)-nicotinamide]",< 1000
5,"O=C(Nc1ccccc1)c1ccc(-c2ccccc2Cl)nc1 [Compound 81, 6-(2-Chloro-phenyl)-N-phenyl-nicotinamide]",< 1000
6,"O=C(Nc1cnc2ccccc2c1)c1ccc(-c2ccccc2Cl)nc1 [Compound 82, 6-(2-Chloro-phenyl)-N-quinolin-3-yl-nicotinamide]",< 1000
7,"Cc1nc2cc(NC(=O)c3ccc(-c4ccccc4F)nc3)ccc2s1 [Compound 85, 6-(2-Fluoro-phenyl)-N-(2-methyl-benzothiazol-5-yl)-nicotinamide]",< 1000
8,"COc1cccc(NC(=O)c2ccc(-c3ccccc3F)nc2)c1 [Compound 87, 6-(2-Fluoro-phenyl)-N-(3-methoxy-phenyl)-nicotinamide]",< 1000
9,"O=C(Nc1cccc(C(F)(F)F)c1)c1ccc(-c2ccccc2F)nc1 [Compound 88, 6-(2-Fluoro-phenyl)-N-(3-trifluoromethyl-phenyl)-nicotinamide]",< 1000
10,"CC(C)c1ccc(NC(=O)c2ccc(-c3ccccc3F)nc2)cc1 [Compound 89, 6-(2-Fluoro-phenyl)-N-(4-isopropyl-phenyl)-nicotinamide]",< 1000
11,"CCCc1ccc(NC(=O)c2ccc(-c3ccccc3F)nc2)cc1 [Compound 91, 6-(2-Fluoro-phenyl)-N-(4-propyl-phenyl)-nicotinamide]",< 1000
12,"O=C(Nc1ccc(C(F)(F)F)cc1)c1ccc(-c2ccccc2F)nc1 [Compound 92, 6-(2-Fluoro-phenyl)-N-(4-trifluoromethyl-phenyl)-nicotinamide]",< 1000
13,"O=C(Nc1ccc2c(c1)CCC2)c1ccc(-c2ccccc2F)nc1 [Compound 93, 6-(2-Fluoro-phenyl)-N-indan-5-yl-nicotinamide]",< 1000
14,"COc1ccccc1-c1ccc(C(=O)Nc2ccc(C(F)(F)F)cc2)cn1 [Compound 99, 6-(2-Methoxy-phenyl)-N-(4-trifluoromethyl-phenyl)-nicotinamide]",< 1000
15,"Cc1ccc(-c2ccc(C(=O)Nc3ccc4c(c3)CCC4)cn2)cc1C [Compound 109, 6-(3,4-Dimethyl-phenyl)-N-indan-5-yl-nicotinamide]",< 1000
16,"Cc1cc(C)cc(-c2ccc(C(=O)Nc3ccc(C)c(F)c3)cn2)c1 [Compound 110, 6-(3,5-Dimethyl-phenyl)-N-(3-fluoro-4-methyl-phenyl)-nicotinamide]",< 1000
17,"O=C(Nc1ccc2c(c1)CCC2)c1ccc(-c2cccc(Cl)c2)nc1 [Compound 116, 6-(3-Chloro-phenyl)-N-indan-5-yl-nicotinamide]",< 1000
18,"CCOc1cccc(-c2ccc(C(=O)Nc3ccc4sc(C)nc4c3)cn2)c1 [Compound 119, 6-(3-Ethoxy-phenyl)-N-(2-smethyl-benzothiazol-5-yl)-nicotinamide]",< 1000
19,"CCOc1cccc(-c2ccc(C(=O)Nc3ccc(C)c(F)c3)cn2)c1 [Compound 120, 6-(3-Ethoxyphenyl)-N-(3-fluoro-4-methyl-phenyl)-nicotinamide]",< 1000

row,Compound,Ki [nM]
1,"CCOc1cccc(-c2ccc(C(=O)Nc3ccc4c(c3)CCC4)cn2)c1 [Compound 124, 6-(3-Ethoxy-phenyl)-N-indan-5-yl-nicotinamide]",< 1000
2,Cc1nc2cc(NC(=O)c3ccc(-c4cccc(F)c4)nc3)ccc2s1 [Compound 125],< 1000
3,"COc1cccc(NC(=O)c2ccc(-c3cccc(F)c3)nc2)c1 [Compound 126, 6-(3-Fluoro-phenyl)-N-(3-methoxy-phenyl)-nicotinamide]",< 1000
4,"CC(C)c1ccc(NC(=O)c2ccc(-c3cccc(F)c3)nc2)cc1 [Compound 127, 6-(3-Fluoro-phenyl)-N-(4-isopropyl-phenyl)-nicotinamide]",< 1000
5,"O=C(Nc1ccc2c(c1)CCC2)c1ccc(-c2cccc(F)c2)nc1 [Compound 129, 6-(3-Fluoro-phenyl)-N-indan-5-yl-nicotinamide]",< 1000
6,"Cc1nc2cc(NC(=O)c3ccc(-c4cccc(C(C)C)c4)nc3)ccc2s1 [Compound 130, 6-(3-Isopropyl-phenyl)-N-(2-methyl-benzothiazol-5-yl)-nicotinamide]",< 1000
7,"COc1cccc(NC(=O)c2ccc(-c3cccc(C(C)C)c3)nc2)c1 [Compound 131, 6-(3-Isopropyl-phenyl)-N-(3-methoxy-phenyl)-nicotinamide]",< 1000
8,"O=C(Nc1ccc(C(F)(F)F)cc1)c1ccc(-c2cccc(OC(F)(F)F)c2)nc1 [Compound 135, N-(4-Trifluoromethyl-phenyl)-6-(3-Trifluoromethoxy-phenyl)-nicotinamide]",< 1000
9,"CCCCc1ccc(-c2ccc(C(=O)Nc3cccc(OC)c3)cn2)cc1 [Compound 137, 6-(4-Butyl-phenyl)-N-(3-methoxy-phenyl)-nicotinamide]",< 1000
10,"COc1cccc(NC(=O)c2ccc(-c3ccc(C(C)C)cc3)nc2)c1 [Compound 147, 6-(4-Isopropyl-phenyl)-N-(3-methoxy-phenyl)-nicotinamide]",< 1000
11,"CCCc1ccc(NC(=O)c2ccc(-c3cc(Cl)ccc3OC)nc2)cc1 [Compound 157, 6-(5-Chloro-2-methoxy-phenyl)-N-(4-propyl-phenyl)-nicotinamide]",< 1000
12,"Cc1nc(-c2ncccc2C(F)(F)F)ccc1C(=O)Nc1ccc(C(F)(F)F)cc1 [Compound 181, 6-Methyl-3′-trifluoromethyl-[2,2′]bipyridinyl-5-carboxylic acid (4-trifluoromethyl-phenyl)-amide]",< 1000
13,"Cc1ccccc1-c1ccc(C(=O)Nc2ccc(C(F)(F)F)cc2)cn1 [Compound 185, 6-o-Tolyl-N-(4-trifluoromethyl-phenyl)-nicotinamide]",< 1000
14,"COc1cc(NC(=O)c2ccc(-c3ccccc3)cc2)ccc1Cl [Compound 189, Biphenyl-4-carboxylic acid (4-chloro-3-methoxy-phenyl)-amide]",< 1000
15,"O=C(Nc1ccc2c(c1)OCCO2)c1ccc(-c2ccccc2F)nc1 [Compound 192, N-(2,3-Dihydro-benzo[1,4]dioxin-6-yl)-6-(2-fluoro-phenyl)-nicotinamide]",< 1000
16,"CCOc1cccc(-c2ccc(C(=O)Nc3ccc4c(c3)OCCO4)cn2)c1 [Compound 194, N-(2,3-Dihydro-benzo[1,4]dioxin-6-yl)-6-(3-ethoxy-phenyl)-nicotinamide]",< 1000
17,"CC(C)c1cccc(-c2ccc(C(=O)Nc3ccc4c(c3)OCCO4)cn2)c1 [Compound 196, N-(2,3-Dihydro-benzo[1,4]dioxin-6-yl)-6-(3-isopropyl-phenyl)-nicotinamide]",< 1000
18,"Cc1cccc(-c2ccc(C(=O)Nc3ccc4c(c3)OCCO4)cn2)c1 [Compound 202, N-(2,3-Dihydro-benzo[1,4]dioxin-6-yl)-6-m-tolyl-nicotinamide]",< 1000
19,"Cc1nc2cc(NC(=O)c3ccc(-c4cccc(OC(F)(F)F)c4)nc3)ccc2s1 [Compound 207, N-(2-Methyl-benzothiazol-5-yl)-6-(3-trifluoromethoxy-phenyl)-nicotinamide]",< 1000
